US7977120B2, “Fluorescent sensors for cellular amines” (The Curators of the University of Missouri, priority 2005, dated 2011)
Entries after “also recorded” stand apart in the source; their conditions may differ.

How the values were obtained:
[1] = Titration of Sensor Ia with various analytes (UV-vis and fluorescence); type: binding; conditions: for binding affinity for sensor Ia (in words): compared with catecholamines; for Isat/I0 (λex = 446 nm): fluorescence intensity at saturation from theoretical fit to binding isotherm; for Isat/I0 (λex = 484 nm) / Isat/I0 (λex = 495 nm): fluorescence intensity at saturation from theoretical fit; for Kn (association constant): fluorescence spectroscopy, λem = 505 nm, error ± 20%, triplicate titration; for Isat/I0 (λex = 484 nm) / Kn (association constant): λex = 484 nm
Experimental: (§1) One exemplary coumarin-based sensor, 2-(((5-(7-(diethylamino)-3-formyl-2-oxo-2H-chromen-4-yl)pentyl)(methyl)amino)methyl)phenylboronic acid, sensor Ia, has been examined spectrophotometrically by titration with dopamine under neutral aqueous conditions in which a reducing agent is included to suppress oxidation of the air-sensitive catechol group.
The titration conditions are 10 μM sensor Ia with 100 mM Na2S2O3, 50 mM HEPES, 20 mM NaCl, pH=7.0, and at 37° C. […] See also, Org. Lett. 2004, 6(21), 3727-3730, which is incorporated herein by reference.
Binding constants (Ka) are determined by fluorescence titrations.

[2] = Fluorescence titration of quinolone sensors with butylamine; type: binding; conditions: Table 3; for Ka, Butylamine: 1:1 methanol-buffer, error ±20%, duplicate titrations; for Isat/I0, Butylamine: maximum change in fluorescence from theoretical fit
[3] = UV-vis and fluorescence titration of quinolone sensors with diaminopropane; type: binding; conditions: for Isat/I0, Diaminopropane / Ka, Diaminopropane: Table 3; for Ka, Diaminopropane: 1:1 methanol-buffer
Source text: (§2) The present invention further discloses that the Quinolone-Dimer Sensors III can also provide detection for diamine analytes. The certain exemplary dimer sensors IIIa-g have been probed spectroscopically by UV-vis and fluorescence titration experiments. […] Moreover, by variation of the linker portion of the sensor III, useful selectivities for different length diamino-analytes have been achieved.
(§3) First, the absorption spectra show trends similar to those observed with the coumarin sensors in which a large red shift in absorption maximum is observed upon addition of diamines to the sensors. […] As shown in FIG. 11(a), when sensor IIIg is titrated with diaminopropane, a 28 nm shift in absorbance is observed consistent with a shift from aldehyde to iminium ion forms. The red shift in absorption has been attributed to the hydrogen bond between the formed iminium ion and the carbonyl group of the chromophore. In fluorescence mode, by exciting the chromophore at 495 nm, a large increase in fluorescence was observed upon titration with the diamine (FIG. 11(b)). The fluorescence increase is fitted to a one-site binding isotherm which gave a binding constant of 6700 M^−1 with a maximum fluorescence increase at saturation (Isat/I0) of 6.6-fold.
(§4) Generally, the dimeric sensors were not as soluble as the monomeric derivatives, so binding studies were performed in 1:1 methanol:buffer (10 mM HEPES, pH=7.4). Water solubilizing groups, such as polyethylene groups, can be provided on the quinolone core in a straightforward synthetic manner. Binding constants and maximum fluorescence changes (Isat/I0) are provided in Table 4 for a few representative guests.

[4] = Fluorescence titration of quinolone sensors with diaminobutane; type: binding; conditions: Table 3; for Ka, Diaminobutane: 1:1 methanol-buffer
Source text: (§5) The present invention further discloses that the Quinolone-Dimer Sensors III can also provide detection for diamine analytes. The certain exemplary dimer sensors IIIa-g have been probed spectroscopically by UV-vis and fluorescence titration experiments. […] Moreover, by variation of the linker portion of the sensor III, useful selectivities for different length diamino-analytes have been achieved. First, the absorption spectra show trends similar to those observed with the coumarin sensors in which a large red shift in absorption maximum is observed upon addition of diamines to the sensors. […] As shown in FIG. 11(a), when sensor IIIg is titrated with diaminopropane, a 28 nm shift in absorbance is observed consistent with a shift from aldehyde to iminium ion forms. The red shift in absorption has been attributed to the hydrogen bond between the formed iminium ion and the carbonyl group of the chromophore. In fluorescence mode, by exciting the chromophore at 495 nm, a large increase in fluorescence was observed upon titration with the diamine (FIG. 11(b)).

[5] = Fluorescence titration of quinolone sensors with diaminopentane; type: binding; conditions: Table 3; for Ka, Diaminopentane: 1:1 methanol-buffer
Source text: as §5

[6] = Fluorescence titration of quinolone sensors with ornithine; type: binding; conditions: Table 3; for Ka, Ornithine: 1:1 methanol-buffer
Source text: as §5

[7] = Fluorescence titration of quinolone sensors with lysine; type: binding; conditions: Table 3; for Ka, Lysine: 1:1 methanol-buffer
Source text: as §2, §3, §4

[8] = Relative affinity of dimer sensors across amine guests; type: binding; conditions: for guest selectivity (in words): comparison of guests, Tables 3 and 4
Source text: The certain exemplary dimer sensors IIIa-g have been probed spectroscopically by UV-vis and fluorescence titration experiments.
Water solubilizing groups, such as polyethylene groups, can be provided on the quinolone core in a straightforward synthetic manner. Binding constants and maximum fluorescence changes (Isat/I0) are provided in Table 4 for a few representative guests.

[9] = tested on: bovine adrenal chromaffin cells; assay: Staining chromaffin cells with the simple monomer IIa (confocal microscopy); type: cell-based; conditions: for staining of cells seen by confocal microscopy: 0.5 μM, 15 minutes, 37 C, excitation 488 nm
Experimental: The present invention further provides that the Quinolone-Monomer Sensors II can sense catecholamines and map their movements in a live cell. The initial proof of concept has been carried out by staining chromaffin cells with the simple monomer IIa. Specifically, several sets of chromaffin cells (which contain norepinephrine) were freshly prepared on coverslips and various concentrations of IIa in media were added.
A stock solution of 50 mM in DMSO was diluted in cell culture media to yield a final concentration of 0.5 uM. Cells were incubated in this solution at 37 C for 15 minutes and then the cells were washed with cell culture media without dye and observed using a confocal microscope at room temperature. The excitation wavelength was 488 nm.
Several sets of chromaffin cells (which contain norepinephrine) were freshly prepared on coverslips and various concentrations of 112 in media were added. […] The nuclei are clearly visible as dark regions. […] Given that the sensor should bind equally well to all amines, it is likely that that the sensor is actively accumulating in the vesicles.

[10] = UV-vis absorption / fluorescence titration of sensor Ia with dopamine; type: binding; conditions: excited at 484 nm, FIG. 8
Source text: as §1, with “First, the sensors I produce a large chromophoric response when reacting with primary amines under physiological conditions. One” for “One”
The titration conditions are 10 μM sensor Ia with 100 mM Na2S2O3, 50 mM HEPES, 20 mM NaCl, pH=7.0, and at 37° C. […] Therefore, the inventive coumarin-based sensors I are selective for primary amines. See also, Org. Lett. 2004, 6(21), 3727-3730, which is incorporated herein by reference.
Table 2 also lists the fluorescence response of the sensor Ia as Isat/I0 (the maximum fluorescence change at saturation) for three different excitation wavelengths: 446 nm, 484 nm, and 495 nm. By exciting sensor Ia at the aldehyde absorption maximum (446 nm), a decrease in fluorescence has been observed for all analytes because the sensor shifted from the aldehyde to the iminium ion form. At higher wavelengths of excitation, simple amines give the typical large increase in fluorescence since the iminium ion preferentially absorbs at these wavelengths. […] The fluorescence quenching effect is found to be directly related to the catechol group. […]

Structure (SMILES) | Isat/I0 (λex = 446 nm) [1] | Isat/I0 (λex = 484 nm) [1] | Isat/I0 (λex = 495 nm) [1] | Kn (association constant) [1] [M⁻¹] | Ka, Butylamine [2] [M⁻¹] | Isat/I0, Butylamine [2] | Isat/I0, Lysine [7] | Ka, Lysine [7] [M⁻¹] | also measured
N[C@@H](CCC(=O)O)C(=O)O [glutamate] |  |  |  |  |  |  |  |  | binding affinity for sensor Ia (in words) [1]: low affinity
NC(CCC(=O)O)C(=O)O (stereo not shown) | 0.87 | 7.0 | 25 | 6.8 |  |  |  |  | 
NCC(O)c1ccc(O)c(O)c1 (stereo not shown) [norepinephrine] | 0.39 | 0.46 |  | 6500 |  |  |  |  | 
CN(C)c1ccc2c(Sc3ccccc3Sc3c(C=O)c(=O)n(Cc4ccccc4)c4cc(N(C)C)ccc34)c(C=O)c(=O)n(Cc3ccccc3)c2c1 [Sensor IIIe] |  |  |  |  | 30 | 10 | 10 | 800 | Isat/I0, Diaminopropane [3]: 8.5; Ka, Diaminopropane ([3]; excitation 495 nm): 350 M⁻¹; Isat/I0, Diaminobutane [4]: 10; Ka, Diaminobutane [4]: 160 M⁻¹; Isat/I0, Diaminopentane [5]: 4.3; Ka, Diaminopentane [5]: 350 M⁻¹; Isat/I0, Ornithine [6]: 7.3; Ka, Ornithine [6]: 680 M⁻¹
CN(C)c1ccc2c(SCCCSc3c(C=O)c(=O)n(Cc4ccccc4)c4cc(N(C)C)ccc34)c(C=O)c(=O)n(Cc3ccccc3)c2c1 [Sensor IIIf] |  |  |  |  | 31 | 26 | 24 | 1460 | Isat/I0, Diaminopropane [3]: 15; Ka, Diaminopropane ([3]; excitation 495 nm): 2100 M⁻¹; Isat/I0, Diaminobutane [4]: 24; Ka, Diaminobutane [4]: 690 M⁻¹; Isat/I0, Diaminopentane [5]: 24; Ka, Diaminopentane [5]: 270 M⁻¹; Isat/I0, Ornithine [6]: 22; Ka, Ornithine [6]: 550 M⁻¹; guest selectivity (in words) [8]: the preferred guest in both cases is lysine
NCCc1ccc(O)c(O)c1 [dopamine] | 0.50 | 0.60 |  | 3400 |  |  |  |  | 
CN(C)c1ccc2c(SCCCCCSc3c(C=O)c(=O)n(Cc4ccccc4)c4cc(N(C)C)ccc34)c(C=O)c(=O)n(Cc3ccccc3)c2c1 [Sensor IIIg] |  |  |  |  | 43 | 38 | 27 | 2756 | Isat/I0, Diaminopropane [3]: 6.6; Ka, Diaminopropane ([3]; excitation 495 nm): 6700 M⁻¹; maximum fluorescence increase at saturation (Isat/I0) ([3]; excitation 495 nm, one-site binding isotherm, FIG. 11(b)): 6.6 fold; Isat/I0, Diaminobutane [4]: 27; Ka, Diaminobutane [4]: 1477 M⁻¹; Isat/I0, Diaminopentane [5]: 18; Ka, Diaminopentane [5]: 2200 M⁻¹; Isat/I0, Ornithine [6]: 20; Ka, Ornithine [6]: 2400 M⁻¹; guest selectivity (in words) [8]: the preferred guest in both cases is lysine; extent of the difference, diamines bind better than butyl amine ([8]; ratio of binding constants, Table 3): 160 fold
CCSc1c(C=O)c(=O)n(Cc2ccccc2)c2cc(N(C)C)ccc12 [Sensor IIa, 1-benzyl-7-(dimethylamino)-4-(ethylthio)-2-oxo-1,2-dihydroquinoline-3-carbaldehyde] |  |  |  |  | 76 | 32 | 41 | 129 | membrane / cell permeability [9]: membrane permeable; staining of cells seen by confocal microscopy [9]: selectively stained; also recorded: punctate staining; staining of cells seen by confocal microscopy ([9]; listed as 112): selectively stained; optimal sensor concentration ([9]; 15 minutes of equilibration time): 0.5 µM
CN(C)c1ccc2c(Sc3cccc(Sc4c(C=O)c(=O)n(Cc5ccccc5)c5cc(N(C)C)ccc45)c3)c(C=O)c(=O)n(Cc3ccccc3)c2c1 [Sensor IIId, meta-Benzenedithiol Dimer] |  |  |  |  | 72 | 8.8 | 4.7 | 2100 | Isat/I0, Diaminopropane [3]: 16; Ka, Diaminopropane ([3]; excitation 495 nm): 3400 M⁻¹; Isat/I0, Diaminobutane [4]: 15; Ka, Diaminobutane [4]: 1600 M⁻¹; Isat/I0, Diaminopentane [5]: 15; Ka, Diaminopentane [5]: 1200 M⁻¹; Isat/I0, Ornithine [6]: 13; Ka, Ornithine [6]: 3300 M⁻¹; guest selectivity (in words) [8]: preference for ornithine
NCCc1ccc(O)cc1 [Tyramine] | 0.41 | 8.0 | 52 | 250 |  |  |  |  | binding affinity for sensor Ia (in words) [1]: significantly reduced affinity
CCN(CC)c1ccc2c(CCCCCN(C)Cc3ccccc3B(O)O)c(C=O)c(=O)oc2c1 [Sensor Ia, 2-(((5-(7-(diethylamino)-3-formyl-2-oxo-2H-chromen-4-yl)pentyl)(methyl)amino)methyl)phenylboronic acid] |  |  |  |  |  |  |  |  | fluorescence on binding dopamine [10]: quenched upon binding dopamine
CNCC(O)c1ccc(O)c(O)c1 (stereo not shown) [epinephrine] | 0.73 | 0.76 | 0.77 | 5000 |  |  |  |  | 
N[C@H]1C(O)O[C@H](CO)[C@@H](O)[C@@H]1O (stereo partly shown) [glucosamine] |  |  |  |  |  |  |  |  | binding affinity for sensor Ia (in words) [1]: affinity similar to the simple amines
NC1C(O)OC(CO)C(O)C1O (stereo not shown) | 0.55 | 5.9 | 27 | 5.0 |  |  |  |  | 
NCCCCC(N)C(=O)O (stereo not shown) | 0.75 | 8.0 | 25 | 4.0 |  |  |  |  | 
